Measurements taken from ChEMBL document CHEMBL3045065, “Synthesis and analgesic effects of 2-(2-carboxyphenylsulfanyl)-N-(4-substitutedphenyl)acetamide derivatives” (Med Chem Res, 2011).

Key:
[1] = system: Mus musculus; test: Neurotoxicity in Mus musculus Swiss albino (mouse) assessed as falling latency at 100 mg/kg, ip by Rota-Rod test; format: toxicity, organism-based; design: dose 100 mg/kg, route intraperitoneal; settings: in vivo
[2] = system: Mus musculus; test: Neurotoxicity in Mus musculus Swiss albino (mouse) assessed as effect on vertical locomotory activity at 100 mg/kg, ip; format: toxicity, organism-based; design: dose 100 mg/kg, route intraperitoneal; settings: in vivo
[3] = system: Mus musculus; test: Analgesic activity in Mus musculus Swiss albino (mouse) assessed as inhibition of acetic acid-induced writhing at 100 mg/kg, ip measured after 30 min relative to control; format: functional; settings: 0.5 h, route intraperitoneal
[4] = system: Mus musculus; test: Analgesic activity in Mus musculus Swiss albino (mouse) at 100 mg/kg, ip measured after 30 min by tail clip test; format: functional; settings: route intraperitoneal
[5] = system: Mus musculus; test: Toxicity in Mus musculus Swiss albino (mouse) assessed as mortality at 100 mg/kg, ip; format: organism-based; design: dose 100 mg/kg, route intraperitoneal; settings: in vivo
[6] = system: Mus musculus; test: Neurotoxicity in Mus musculus Swiss albino (mouse) assessed as effect on horizontal locomotory activity at 100 mg/kg, ip; format: toxicity, organism-based; design: dose 100 mg/kg, route intraperitoneal; settings: in vivo
[7] = system: Mus musculus; test: Analgesic activity in Mus musculus Swiss albino (mouse) assessed as paw licking and jumping latency at 100 mg/kg, ip measured after 30 min by hot plate test; format: functional; settings: route intraperitoneal

O=C(CSc1ccccc1C(=O)O)Nc1ccc(C(=O)O)cc1
Activity [1]: Non-toxic
Activity [2]: Non-toxic
inhibition in vivo at 100 mg/kg [3]: 20.3%
MPE [4]: 17.05%
Activity [5]: Non-toxic
Activity [6]: Non-toxic
Activity [7]: 18.07%

COc1ccc(NC(=O)CSc2ccccc2C(=O)O)cc1
Activity [1]: Non-toxic
Activity [2]: Non-toxic
inhibition in vivo at 100 mg/kg [3]: 27.7%
MPE [4]: 25.01%
Activity [5]: Non-toxic
Activity [6]: Non-toxic
Activity [7]: 35.12%

O=C(O)c1ccccc1S [THIOSALICYLIC ACID]
Activity [1]: Non-toxic
Activity [2]: Non-toxic
inhibition in vivo at 100 mg/kg [3]: 33.9%
MPE [4]: 40.37%
Activity [5]: Non-toxic
Activity [6]: Non-toxic
Activity [7]: 62.49%

O=C(CSc1ccccc1C(=O)O)Nc1ccc(Br)cc1
Activity [1]: Non-toxic
Activity [2]: Non-toxic
inhibition in vivo at 100 mg/kg [3]: 9.04%
MPE [4]: 13.71%
Activity [5]: Non-toxic
Activity [6]: Non-toxic
Activity [7]: 8.48%

CC(=O)Nc1ccc(O)cc1 [ACETAMINOPHEN]
Activity [1]: Non-toxic
Activity [2]: Non-toxic
inhibition in vivo at 100 mg/kg [3]: 29.4%
Activity [5]: Non-toxic
Activity [6]: Non-toxic
Activity [7]: 51.61%

O=C(CSc1ccccc1C(=O)O)Nc1ccccc1
Activity [1]: Non-toxic
Activity [2]: Non-toxic
inhibition in vivo at 100 mg/kg [3]: 54.8%
MPE [4]: 52.1%
Activity [5]: Non-toxic
Activity [6]: Non-toxic
Activity [7]: 79.98%

O=C(CSc1ccccc1C(=O)O)Nc1ccc(Cl)cc1
Activity [1]: Non-toxic
Activity [2]: Non-toxic
inhibition in vivo at 100 mg/kg [3]: 49.7%
MPE [4]: 43.94%
Activity [5]: Non-toxic
Activity [6]: Non-toxic
Activity [7]: 65.73%

Cc1ccc(NC(=O)CSc2ccccc2C(=O)O)cc1
Activity [1]: Non-toxic
Activity [2]: Non-toxic
inhibition in vivo at 100 mg/kg [3]: 76.3%
MPE [4]: 72.31%
Activity [5]: Non-toxic
Activity [6]: Non-toxic
Activity [7]: 89.37%
